Reference: patent US9096601B2 (CSPC Zhongqi Pharmaceutical Technology (Shijiazhuang) Co., …, priority 2010, dated 2015)
pIC50: −log10 of the molar value. Like-named read-outs stand apart in the source and are kept apart here.

Columns and labels:
[1] = system: squamous cell carcinoma cell strain A431; assay: In-vitro tumor cell proliferation inhibition, MTT; format: cell-based, human
Description: (§1) The object of this assay was to test the inventive compounds for the inhibitory activity of in-vitro tumor cell proliferation. The MTT (tetreamethyl-azo-zole-salt) colorimetric method was used in this assay.
(§2) Human non-small cell lung carcinoma cell strains HCC827, PC-9, H1975 (EGFR L858R/T790M mutation) and H292 (EGFR WT), and other tumor type cell strains, including human acute myelogenous leukemia cell strain MV4-11, human chronic granulocytic leukemia cell strain K562, human squamous cell carcinoma cell strain A431, human breast carcinoma cell strains MDA-MB-468 and BT 474, human colon cancer cell strains SW480, HCT116 and SW620, human liver cancer cell strain Hep G2, human gastric cancer cell strain MK-45, and human malignant melanoma cell strain A375 used in this assay were all purchased from ATCC company, USA and kept in the laboratory. All of the above-mentioned non-small cell lung carcinoma cell strains and the breast carcinoma cell strain BT 474 were cultured with a RPMI-1640 complete culture medium containing 10% fetal bovine serum, 100 U/ml penicillin and 100 μg/ml streptomycin under 5% CO2 and at 37° C. The other cell strains were cultured with a DMEM complete culture medium containing 10% fetal bovine serum (having a MV4-11 cell content of 20%), 100 U/ml penicillin and 100 μg/ml streptomycin under 5% CO2 and 37° C.
(§3) A cell suspension having a cell concentration of 1-2×10^4 cells/ml was treated with a complete cell culture solution to adjust the cell concentration, wherein the cell concentrations for HCC827 and MV4-11 were adjusted to 6×10^4 cells/ml and 1×10^5 cells/ml respectively. The cell suspension was inoculated in a 96-well plate with 200 μl cell suspension/well and cultured overnight. Next day, the supernatant was drawn off and discarded. Then, the cells were treated with the tested compounds in a gradient concentration respectively. In the meanwhile, a negative control group free of the drug substance and an isovolumetric solvent control group (having a DMSO concentration of 1%) were used. The triplicate wells were used for each of dose groups. The culturing was conducted at 37° C. under 5% CO2. After 72 hours, […] having a concentration of 5 mg/ml was added to each of wells. The culturing was further conducted for 2-4 hours. The supernatant was discarded. Then […] was added to each of wells. The contents in the well were mixed homogenously by oscillation for 15 minutes. The absorbance (A) value was measured with a microplate reader at λ=570 nm (the A value is in the direct proportion to the number of living cells) and averaged. The relative cell proliferation inhibitory rate is (A570 control-group−A570 dose-group)/A570 control-group×100%. The assay was repeated for at least three times. The data was expressed as number average. The statistical data were analyzed using t-test. P<0.05 was considered significant. The cell proliferation inhibition of the following compounds was expressed as IC50 or inhibitory rate.

[2] = system: colon cancer cell strain SW620; assay: In-vitro tumor cell proliferation inhibition, MTT; format: cell-based, human
Description: as §1, §2, §3

[3] = system: acute myelogenous leukemia cell strain MV4-11; assay: In-vitro tumor cell proliferation inhibition, MTT; format: cell-based, human
Description: as §1, §2, §3

[4] = system: breast carcinoma cell strain BT474; assay: In-vitro tumor cell proliferation inhibition, MTT; format: cell-based, human
Description: as §1, §2, §3

[5] = system: colon cancer cell strain SW480; assay: In-vitro tumor cell proliferation inhibition, MTT; format: cell-based, human
Description: as §1, §2, §3

[6] = system: gastric cancer cell strain MK-45; assay: In-vitro tumor cell proliferation inhibition, MTT; format: cell-based, human; settings: 72 hours, read-out: MK45 (IC50)
Description: as §1, §2, §3

[7] = system: colon cancer cell strain HCT116; assay: In-vitro tumor cell proliferation inhibition, MTT; format: cell-based, human
Description: as §1, §2, §3

[8] = system: chronic granulocytic leukemia cell strain K562; assay: In-vitro tumor cell proliferation inhibition, MTT; format: cell-based, human
Description: as §1, §2, §3

[9] = system: liver cancer cell strain Hep G2; assay: In-vitro tumor cell proliferation inhibition, MTT; format: cell-based, human
Description: as §1, §2, §3

[10] = system: malignant melanoma cell strain A375; assay: In-vitro tumor cell proliferation inhibition, MTT; format: cell-based, human
Description: as §1, §2, §3

[11] = system: breast carcinoma cell strain MDA-MB-468; assay: In-vitro tumor cell proliferation inhibition, MTT; format: cell-based, human
Description: as §1, §2, §3

c-KIT = c-KIT (Homo sapiens (Human), UniProt P10721); assay: Kinase inhibitory activity, isotopic labeling (γ-33P-ATP); format: biochemical; settings: compound at 10 μM; read-out: The kinase activity inhibitory rate (%) by the tested compounds at 10 μM c-KIT
Experimental: (§4) The object of this assay was to test the inventive compounds for the kinase inhibitory activity in vitro. In this assay, an isotopic labeling method was used to label the γ phosphate group on ATP. EGFR (including wild type, L858R mutant type and L858R/T790M double mutant type), VEGFR2, ALK, BTK, c-KIT, c-SRC, MET, PDGFRα and FLT3 kinases were tested in vitro for the activity inhibition. Staurosporine was used as a reference molecule (or referred to as a positive control). […] The IC50 value can be obtained by the calculation of the inhibitory rates at a series of different concentrations of the tested compounds.
(§5) To a reaction tube were successively added the buffer solution (8 mM MOPS, pH 7.0, 0.2 mM EDTA, 10 mM MnCl2), the kinase to be tested (5-10 mU) (EGFR/ALK/BTK/c-KIT/c-SRC/MET/PDGFRα/VEGFR2), the substrate for the kinase to be tested (a reference material), 10 mM of the solution of magnesium acetate and γ-^33 P-ATP, and different concentrations of the tested compounds. […] The reaction was terminated with […] of the 3% phosphate buffer solution. 10 μL of the reaction liquid was titrated on the Filtermat A membrane. The membrane was washed with 75 mM of the phosphate solution thrice (5 minutes each time), and then with methanol once, and finally dried. The membrane was subjected to a scintillation counting. The value of the scintillation counting reflected the phosphorylation level of the substrate and therefore could characterize the inhibition of the kinase activity.

c-SRC = c-SRC (Homo sapiens (Human), UniProt P12931); assay: as above; format: biochemical; settings: compound at 10 μM; read-out: The kinase activity inhibitory rate (%) by the tested compounds at 10 μM c-SRC
Experimental: as §4, §5

ALK = ALK (Homo sapiens (Human), UniProt Q9UM73); assay: as above; format: biochemical; settings: compound at 10 μM; read-out: The kinase activity inhibitory rate (%) by the tested compounds at 10 μM ALK
Experimental: as §4, §5

VEGFR2 = VEGFR2 (Homo sapiens (Human), UniProt P35968); assay: as above; format: biochemical
Experimental: as §4, §5

BTK = BTK (Homo sapiens (Human), UniProt Q06187); assay: as above; format: biochemical; settings: compound at 10 μM; read-out: The kinase activity inhibitory rate (%) by the tested compounds at 10 μM BTK
Experimental: as §4, §5

PDGFRα = PDGFRα (Homo sapiens (Human), UniProt P16234); assay: as above; format: biochemical; settings: compound at 10 μM; read-out: The kinase activity inhibitory rate (%) by the tested compounds at 10 μM PDGFRα
Experimental: as §4, §5

MET = MET (Homo sapiens (Human), UniProt P08581); assay: as above; format: biochemical; settings: compound at 10 μM; read-out: The kinase activity inhibitory rate (%) by the tested compounds at 10 μM MET
Experimental: as §4, §5

FLT3 = FLT3 (Homo sapiens (Human), UniProt P36888); assay: as above; format: biochemical; settings: compound at 10 μM; read-out: The kinase activity inhibitory rate (%) by the tested compounds at 10 μM FLT3
Experimental: as §4, §5

[12] = system: non-small cell lung carcinoma cell strain H1975 (EGFR L858R/T790M mutation); assay: In-vitro tumor cell proliferation inhibition, MTT; format: cell-based, human; settings: 72 hours
Experimental: as §1
(§6) All of the above-mentioned non-small cell lung carcinoma cell strains and the breast carcinoma cell strain BT 474 were cultured with a RPMI-1640 complete culture medium containing 10% fetal bovine serum, 100 U/ml penicillin and 100 μg/ml streptomycin under 5% CO2 and at 37° C. The other cell strains were cultured with a DMEM complete culture medium containing 10% fetal bovine serum (having a MV4-11 cell content of 20%), 100 U/ml penicillin and 100 μg/ml streptomycin under 5% CO2 and 37° C.
as §3

[13] = system: non-small cell lung carcinoma cell strain HCC827; assay: In-vitro tumor cell proliferation inhibition, MTT; format: cell-based, human; settings: 72 hours
Experimental: as §1, §6, §3

[14] = system: non-small cell lung carcinoma cell strain PC-9 (EGFR delE746-A750 deletion mutation); assay: In-vitro tumor cell proliferation inhibition, MTT; format: cell-based, human; settings: 72 hours
Experimental: as §1, §6, §3

[15] = system: non-small cell lung carcinoma cell strain H292 (EGFR WT); assay: In-vitro tumor cell proliferation inhibition, MTT; format: cell-based, human; settings: 72 hours
Experimental: as §1, §6, §3

[16] = 72 hours, read-out: HEPG2 (IC50)

ALK, sequence (Q9UM73 19-1620): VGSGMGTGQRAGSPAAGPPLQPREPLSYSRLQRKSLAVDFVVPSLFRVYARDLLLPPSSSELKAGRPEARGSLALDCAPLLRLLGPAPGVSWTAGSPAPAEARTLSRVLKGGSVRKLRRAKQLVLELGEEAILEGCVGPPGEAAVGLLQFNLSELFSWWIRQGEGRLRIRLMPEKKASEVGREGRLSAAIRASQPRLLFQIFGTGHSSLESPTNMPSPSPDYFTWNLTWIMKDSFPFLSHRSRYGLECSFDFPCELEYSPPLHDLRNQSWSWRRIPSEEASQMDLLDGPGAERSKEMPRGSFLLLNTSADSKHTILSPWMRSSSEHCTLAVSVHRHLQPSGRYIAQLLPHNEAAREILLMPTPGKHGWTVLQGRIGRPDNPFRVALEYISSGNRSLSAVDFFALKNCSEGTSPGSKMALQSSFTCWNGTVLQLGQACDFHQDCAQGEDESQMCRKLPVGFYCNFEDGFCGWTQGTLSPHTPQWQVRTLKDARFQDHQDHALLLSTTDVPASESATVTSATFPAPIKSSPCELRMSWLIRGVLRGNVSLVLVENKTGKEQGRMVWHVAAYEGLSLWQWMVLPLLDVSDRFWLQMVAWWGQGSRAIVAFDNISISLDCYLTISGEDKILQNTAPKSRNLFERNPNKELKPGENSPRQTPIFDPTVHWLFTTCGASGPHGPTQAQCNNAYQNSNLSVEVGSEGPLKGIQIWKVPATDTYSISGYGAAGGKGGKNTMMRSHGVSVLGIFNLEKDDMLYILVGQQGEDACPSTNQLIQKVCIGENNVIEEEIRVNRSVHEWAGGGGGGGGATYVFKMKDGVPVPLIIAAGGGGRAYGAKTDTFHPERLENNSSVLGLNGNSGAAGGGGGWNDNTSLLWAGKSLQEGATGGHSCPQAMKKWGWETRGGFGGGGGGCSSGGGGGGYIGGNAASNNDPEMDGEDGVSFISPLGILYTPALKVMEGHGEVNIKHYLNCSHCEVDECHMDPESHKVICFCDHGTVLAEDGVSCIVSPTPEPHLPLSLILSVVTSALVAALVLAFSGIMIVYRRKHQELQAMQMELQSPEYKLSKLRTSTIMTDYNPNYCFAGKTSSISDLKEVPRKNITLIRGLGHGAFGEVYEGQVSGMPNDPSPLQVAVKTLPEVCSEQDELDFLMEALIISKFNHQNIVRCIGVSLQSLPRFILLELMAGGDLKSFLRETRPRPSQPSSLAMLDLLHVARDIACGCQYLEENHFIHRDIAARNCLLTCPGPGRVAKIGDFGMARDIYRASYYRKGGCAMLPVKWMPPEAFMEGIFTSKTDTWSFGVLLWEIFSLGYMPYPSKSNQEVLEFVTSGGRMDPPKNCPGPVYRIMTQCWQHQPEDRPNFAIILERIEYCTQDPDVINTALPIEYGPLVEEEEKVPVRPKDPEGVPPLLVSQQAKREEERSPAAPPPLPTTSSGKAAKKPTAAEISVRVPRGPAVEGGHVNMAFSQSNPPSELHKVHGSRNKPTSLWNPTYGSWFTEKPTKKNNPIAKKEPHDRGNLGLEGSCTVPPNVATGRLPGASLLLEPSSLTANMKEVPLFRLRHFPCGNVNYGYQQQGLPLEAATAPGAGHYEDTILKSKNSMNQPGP
BTK, sequence (Q06187 whole entry): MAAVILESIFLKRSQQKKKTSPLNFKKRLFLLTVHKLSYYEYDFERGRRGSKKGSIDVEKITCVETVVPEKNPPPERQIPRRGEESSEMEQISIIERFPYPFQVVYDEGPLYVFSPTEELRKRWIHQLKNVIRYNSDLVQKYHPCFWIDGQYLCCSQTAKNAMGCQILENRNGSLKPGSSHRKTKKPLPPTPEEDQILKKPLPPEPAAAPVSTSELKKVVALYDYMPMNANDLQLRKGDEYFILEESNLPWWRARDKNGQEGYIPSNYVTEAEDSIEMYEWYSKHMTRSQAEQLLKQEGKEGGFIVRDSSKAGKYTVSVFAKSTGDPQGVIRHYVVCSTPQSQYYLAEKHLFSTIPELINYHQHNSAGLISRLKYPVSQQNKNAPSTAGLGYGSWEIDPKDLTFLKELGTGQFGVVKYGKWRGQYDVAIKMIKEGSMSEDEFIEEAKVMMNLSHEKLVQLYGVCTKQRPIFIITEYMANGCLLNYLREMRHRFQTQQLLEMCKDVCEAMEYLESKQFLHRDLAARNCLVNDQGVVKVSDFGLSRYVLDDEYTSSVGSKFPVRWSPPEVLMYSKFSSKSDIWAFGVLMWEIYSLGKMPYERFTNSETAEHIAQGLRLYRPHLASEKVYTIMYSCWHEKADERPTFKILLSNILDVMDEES
VEGFR2, sequence (P35968 20-1356): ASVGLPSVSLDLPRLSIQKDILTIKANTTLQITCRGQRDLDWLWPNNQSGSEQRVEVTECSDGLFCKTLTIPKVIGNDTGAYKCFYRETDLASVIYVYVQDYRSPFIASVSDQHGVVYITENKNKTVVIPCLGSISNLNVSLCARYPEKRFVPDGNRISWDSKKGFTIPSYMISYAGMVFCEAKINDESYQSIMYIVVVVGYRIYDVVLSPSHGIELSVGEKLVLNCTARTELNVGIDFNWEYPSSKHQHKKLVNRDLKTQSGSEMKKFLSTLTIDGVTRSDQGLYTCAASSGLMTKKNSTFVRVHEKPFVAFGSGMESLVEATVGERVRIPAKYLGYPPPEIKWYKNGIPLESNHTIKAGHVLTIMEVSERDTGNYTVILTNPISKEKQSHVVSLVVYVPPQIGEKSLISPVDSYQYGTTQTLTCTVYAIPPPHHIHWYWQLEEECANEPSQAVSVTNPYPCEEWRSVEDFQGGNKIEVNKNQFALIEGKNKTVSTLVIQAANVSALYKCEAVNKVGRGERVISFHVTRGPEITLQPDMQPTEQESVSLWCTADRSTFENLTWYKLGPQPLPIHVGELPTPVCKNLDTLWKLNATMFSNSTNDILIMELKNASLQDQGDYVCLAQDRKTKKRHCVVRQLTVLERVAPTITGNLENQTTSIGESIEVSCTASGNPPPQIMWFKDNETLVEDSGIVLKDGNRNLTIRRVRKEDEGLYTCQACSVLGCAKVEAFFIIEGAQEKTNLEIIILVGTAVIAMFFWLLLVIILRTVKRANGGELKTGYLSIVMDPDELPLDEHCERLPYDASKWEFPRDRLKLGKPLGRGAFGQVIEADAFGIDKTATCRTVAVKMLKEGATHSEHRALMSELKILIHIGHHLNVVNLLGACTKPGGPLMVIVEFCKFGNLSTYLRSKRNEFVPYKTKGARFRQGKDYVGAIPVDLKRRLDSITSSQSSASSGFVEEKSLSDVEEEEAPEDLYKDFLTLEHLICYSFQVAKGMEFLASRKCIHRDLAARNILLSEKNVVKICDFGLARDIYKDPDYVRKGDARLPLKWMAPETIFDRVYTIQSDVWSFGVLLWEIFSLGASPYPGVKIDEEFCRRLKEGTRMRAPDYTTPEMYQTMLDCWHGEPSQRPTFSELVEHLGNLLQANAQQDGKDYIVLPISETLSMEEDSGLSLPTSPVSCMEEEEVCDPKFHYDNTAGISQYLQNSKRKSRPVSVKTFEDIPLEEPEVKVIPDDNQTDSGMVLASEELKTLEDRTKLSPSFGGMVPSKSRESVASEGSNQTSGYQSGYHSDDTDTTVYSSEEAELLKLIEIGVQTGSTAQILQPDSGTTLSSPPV
PDGFRα, sequence (P16234 24-1089): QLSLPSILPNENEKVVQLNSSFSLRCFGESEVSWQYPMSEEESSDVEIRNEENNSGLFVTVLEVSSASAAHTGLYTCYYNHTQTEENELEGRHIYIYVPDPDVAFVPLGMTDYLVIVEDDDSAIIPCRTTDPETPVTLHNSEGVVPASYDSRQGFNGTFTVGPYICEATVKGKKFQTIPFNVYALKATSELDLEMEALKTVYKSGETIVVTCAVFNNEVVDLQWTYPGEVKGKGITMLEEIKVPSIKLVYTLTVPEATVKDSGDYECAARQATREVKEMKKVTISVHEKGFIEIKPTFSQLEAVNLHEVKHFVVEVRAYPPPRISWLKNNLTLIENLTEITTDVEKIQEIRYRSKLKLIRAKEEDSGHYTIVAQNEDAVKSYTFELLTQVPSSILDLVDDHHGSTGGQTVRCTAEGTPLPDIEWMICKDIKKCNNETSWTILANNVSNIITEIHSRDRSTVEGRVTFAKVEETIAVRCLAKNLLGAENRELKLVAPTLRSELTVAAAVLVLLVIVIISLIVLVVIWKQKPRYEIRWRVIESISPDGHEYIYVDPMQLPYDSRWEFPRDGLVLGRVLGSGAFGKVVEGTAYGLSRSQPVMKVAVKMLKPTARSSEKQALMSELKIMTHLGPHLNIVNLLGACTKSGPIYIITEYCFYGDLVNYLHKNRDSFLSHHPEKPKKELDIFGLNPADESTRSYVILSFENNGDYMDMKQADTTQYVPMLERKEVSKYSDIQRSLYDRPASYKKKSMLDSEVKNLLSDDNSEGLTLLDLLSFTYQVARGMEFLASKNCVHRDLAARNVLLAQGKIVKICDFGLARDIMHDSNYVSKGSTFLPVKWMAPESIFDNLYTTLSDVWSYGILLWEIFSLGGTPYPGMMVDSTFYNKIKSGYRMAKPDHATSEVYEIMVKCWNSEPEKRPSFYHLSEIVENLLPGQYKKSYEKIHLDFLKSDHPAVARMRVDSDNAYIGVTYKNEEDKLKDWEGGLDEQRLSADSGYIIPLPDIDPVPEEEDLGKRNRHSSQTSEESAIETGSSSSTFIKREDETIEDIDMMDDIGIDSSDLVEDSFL

SMILES | pIC50 ([1]; 72 hours) | pIC50 ([2]; 72 hours) | pIC50 ([3]; 72 hours) | pIC50 ([4]; 72 hours) | pIC50 ([5]; 72 hours) | pIC50 [6] | pIC50 ([7]; 72 hours) | pIC50 ([8]; 72 hours) | pIC50 [9, 16] | pIC50 ([10]; 72 hours) | pIC50 ([11]; 72 hours) | pIC50 [12] | pIC50 [13] | pIC50 [14] | pIC50 [15] | further results
CC(C)n1c(Nc2ccc(F)c(Cl)c2)nc2cnc(Nc3ccc(C(=O)NN4CCN(C)CC4)cc3F)nc21 [Compound 8-5, 3-fluoro-4-(9-isopropyl-8-(3-chloro-4-fluorophenylamino)-9H-purin-2-ylamino)-N-(4-methylpiperazin-1-yl)benzamide] | – | – | – | – | – | – | – | – | – | – | – | – | – | – | – | pIC50 ([1]; Homo sapiens, A-431, 72 hours): 5.03; pIC50 ([2]; Homo sapiens, SW-620, 72 hours): 5.25; pIC50 ([3]; Homo sapiens, MV4-11, 72 hours): 5.75; pIC50 ([4]; Homo sapiens, BT-474, 72 hours): 5.73; pIC50 ([5]; Homo sapiens, SW480, 72 hours): < 5.00; pIC50 ([6]; Homo sapiens): < 6.00; pIC50 ([7]; Homo sapiens, HCT-116, 72 hours): 5.11; pIC50 ([8]; Homo sapiens, K562, 72 hours): 5.43; pIC50 ([9]; Homo sapiens, HepG2, 72 hours): < 5.00; pIC50 ([10]; Homo sapiens, A-375, 72 hours): < 6.00; pIC50 ([11]; Homo sapiens, MDA-MB-468, 72 hours): 5.21; inhibition at 10 µM (c-KIT): 54%; inhibition at 10 µM (c-SRC): 32%; inhibition at 10 µM (ALK): 54%; pIC50 (VEGFR2): < 6.00; inhibition at 10 µM (BTK): 78%; inhibition at 10 µM (PDGFRα): 19%; inhibition at 10 µM (MET): 64%; inhibition at 10 µM (FLT3): 35%
CN1CCN(c2ccc(Nc3ncc4nc(Nc5cccc(Cl)c5)n(C5CCCC5)c4n3)cc2)CC1 [Compounds 8-52] | 7.10 | 5.80 | 6.19 | 6.78 | 5.34 | 6.34 | 5.23 | 6.83 | 5.14 | 6.01 | 6.13 | 6.57 | 9.52 | 9.22 | 8.40 | –
Cc1cccc(Nc2nc3cnc(Nc4ccc(N5CCN(C)CC5)cc4)nc3n2C2CCCC2)c1 [Compounds 8-53] | 6.60 | 5.67 | 6.05 | 5.82 | 5.38 | 6.25 | < 5.00 | 7.02 | < 5.00 | 5.09 | 6.21 | 6.26 | 9.70 | 9.70 | 8.39 | –
CN1CCN(c2ccc(Nc3ncc4nc(Nc5cc(Cl)cc(Cl)c5)n(C5CCCC5)c4n3)cc2)CC1 [Compounds 8-54] | 5.69 | 5.18 | 5.97 | 5.40 | 5.17 | 6.16 | 5.16 | 6.06 | 5.22 | 5.25 | 5.48 | 5.77 | 8.20 | 6.69 | 6.55 | –
